Experimental data published in patent publication US9969742B2, “Imidazotriazinone compounds” (Ironwood Pharmaceuticals, Inc., priority 2012, dated 2018).
Like-named read-outs stand apart in the source and are kept apart here. Values belong to the compound of their own block, whether it stands above or below them.

Legend:
Assay type in all cases: biochemical
PDE9A2 = molecular target: T1, PDE9A2 (Homo sapiens, UniProt O76083); test: Phosphodiesterase enzyme screening assay, PDE9A2; details: read-out: Band (PDE9A2 IC50)
T1 construct: purchased Reaction Biology Corporation, Malvern, Pa
T1 sequence (O76083 1-533 isoform O76083-2): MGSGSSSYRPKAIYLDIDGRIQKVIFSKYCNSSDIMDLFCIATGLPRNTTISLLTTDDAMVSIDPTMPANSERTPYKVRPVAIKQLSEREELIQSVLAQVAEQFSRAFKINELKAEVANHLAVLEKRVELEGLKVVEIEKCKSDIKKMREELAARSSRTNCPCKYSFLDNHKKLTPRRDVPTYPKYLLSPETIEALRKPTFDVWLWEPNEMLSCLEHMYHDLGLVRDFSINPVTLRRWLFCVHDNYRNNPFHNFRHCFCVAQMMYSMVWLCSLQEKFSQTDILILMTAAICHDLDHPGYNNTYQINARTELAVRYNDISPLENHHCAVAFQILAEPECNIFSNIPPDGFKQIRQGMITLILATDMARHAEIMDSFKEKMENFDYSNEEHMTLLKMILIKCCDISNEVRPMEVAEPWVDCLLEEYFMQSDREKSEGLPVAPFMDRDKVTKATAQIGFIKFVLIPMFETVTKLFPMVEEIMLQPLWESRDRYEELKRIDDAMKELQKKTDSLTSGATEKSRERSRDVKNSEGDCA
Method in brief: (§1)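 Human PDE isoforms were incubated 1 h at room temperature with 4.0 μM fluorescent cGMP substrate in 100 mM HEPES pH 7.5, 5 mM MgCl2, 1 mM DTT, 0.003% Brij. EDTA stop buffer ended reactions, and substrate and 5′-GMP product were separated by microfluidic electrophoretic mobility shift with laser-induced fluorescence. Inhibition was calculated against control wells.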

PDE1A = molecular target: T2, PDE1A (Homo sapiens, UniProt P54750); test: Phosphodiesterase enzyme screening assay, PDE1A
T2 construct: purchased Reaction Biology Corporation, Malvern, Pa
T2 sequence (P54750 whole entry): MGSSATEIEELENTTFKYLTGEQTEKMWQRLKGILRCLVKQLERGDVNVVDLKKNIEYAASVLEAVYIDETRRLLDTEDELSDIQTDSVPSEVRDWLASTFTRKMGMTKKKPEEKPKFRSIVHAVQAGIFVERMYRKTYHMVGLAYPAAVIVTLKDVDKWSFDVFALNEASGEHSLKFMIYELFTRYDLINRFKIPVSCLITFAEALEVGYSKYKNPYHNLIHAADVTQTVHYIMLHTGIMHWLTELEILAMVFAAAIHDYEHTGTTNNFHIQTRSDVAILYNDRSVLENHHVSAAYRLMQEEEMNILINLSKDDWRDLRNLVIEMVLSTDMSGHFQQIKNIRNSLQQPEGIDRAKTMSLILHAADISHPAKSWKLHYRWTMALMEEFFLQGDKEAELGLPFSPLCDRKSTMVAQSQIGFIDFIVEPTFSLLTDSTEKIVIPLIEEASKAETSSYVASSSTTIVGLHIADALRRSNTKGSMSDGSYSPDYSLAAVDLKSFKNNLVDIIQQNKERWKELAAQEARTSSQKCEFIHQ
Method in brief: as §1

PDE1B = molecular target: T3, PDE1B (Homo sapiens, UniProt Q01064); test: Phosphodiesterase enzyme screening assay, PDE1B
T3 construct: purchased Reaction Biology Corporation, Malvern, Pa
T3 sequence (Q01064 whole entry): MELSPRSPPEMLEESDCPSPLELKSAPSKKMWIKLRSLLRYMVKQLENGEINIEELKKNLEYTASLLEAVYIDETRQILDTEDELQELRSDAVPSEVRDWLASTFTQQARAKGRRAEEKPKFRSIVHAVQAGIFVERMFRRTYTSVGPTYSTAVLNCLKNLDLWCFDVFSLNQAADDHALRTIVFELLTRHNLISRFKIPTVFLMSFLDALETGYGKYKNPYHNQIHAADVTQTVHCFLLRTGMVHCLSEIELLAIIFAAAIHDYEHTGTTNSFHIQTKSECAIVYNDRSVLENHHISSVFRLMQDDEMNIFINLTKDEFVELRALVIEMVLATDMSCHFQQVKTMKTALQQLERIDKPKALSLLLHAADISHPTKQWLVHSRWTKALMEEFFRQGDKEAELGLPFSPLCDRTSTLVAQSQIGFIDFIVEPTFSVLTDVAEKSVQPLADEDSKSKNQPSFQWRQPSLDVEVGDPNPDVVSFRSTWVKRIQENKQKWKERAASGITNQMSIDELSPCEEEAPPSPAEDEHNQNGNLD
Method in brief: as §1

[1] = Table 3, 4.0 μM cGMP substrate, 1 hour at R.T.
[2] = ratio of IC50 values, PDE1A versus PDE9A2, value greater than 1 = greater selectivity for PDE9A2
[3] = ratio of IC50 values, PDE1B versus PDE9A2, value greater than 1 = greater selectivity for PDE9A2
[4] = ratio of IC50 values, value greater than 1 indicates greater selectivity for PDE9A2
[5] = Table 2, 10 concentrations, 4.0 μM cGMP substrate, 1 hour at R.T.
[6] = Table 2, ratio of IC50 values, value greater than 1 indicates greater selectivity for PDE9A2
[7] = 4.0 μM cGMP substrate, 1 hour at R.T.
[8] = ratio of IC50 values PDE1A / PDE9A2, value greater than 1 = greater selectivity for PDE9A2
[9] = ratio of IC50 values PDE1B / PDE9A2, value greater than 1 = greater selectivity for PDE9A2
[10] = Table 1, 10 concentrations, 4.0 μM cGMP substrate, 1 hour at R.T.
[11] = Table 1, ratio of IC50 values, value greater than 1 indicates greater selectivity for PDE9A2

SMILES: Cc1cccnc1CN1CC(C)C(c2nn3c(C4CCOCC4)ncc3c(=O)[nH]2)C1 (single isomer, unassigned; (+)) [(+)-2-((3,4-trans)-4-methyl-1-((3-methylpyridin-2-yl)methyl)pyrrolidin-3-yl)-7-(tetrahydro-2H-pyran-4-yl)imidazo[5,1-f][1,2,4]triazin-4(3H)-one]
- IC50 (PDE9A2; [1]): < 1000 nM
- PDE1A selectivity (versus PDE9A2) (PDE1A; [2]): 242
- PDE1B selectivity (versus PDE9A2) (PDE1B; [3]): 298

SMILES: Cc1ccnc(CN2CC(C)C(c3nn4c(C5CCOCC5)ncc4c(=O)[nH]3)C2)c1 (single isomer, unassigned; (+)) [(+)-2-((3,4-trans)-4-methyl-1-((4-methylpyridin-2-yl)methyl)pyrrolidin-3-yl)-7-(tetrahydro-2H-pyran-4-yl)imidazo[5,1-f][1,2,4]triazin-4(3H)-one]
- IC50 (PDE9A2; [7]): < 1000 nM
- PDE1A selectivity (versus PDE9A2) (PDE1A; [8]): 143
- PDE1B selectivity (versus PDE9A2) (PDE1B; [9]): 116

SMILES: Cc1ccnc(CN2CC(C)C(c3nn4c(C5CCOCC5)ncc4c(=O)[nH]3)C2)n1 (single isomer, unassigned; (+)) [(+)-2-((3,4-trans)-4-methyl-1-((4-methylpyrimidin-2-yl)methyl)pyrrolidin-3-yl)-7-(tetrahydro-2H-pyran-4-yl)imidazo[5,1-f][1,2,4]triazin-4(3H)-one]
- IC50 (PDE9A2; [5]): < 1000 nM
- PDE1A selectivity (versus PDE9A2) (PDE1A; [6]): 182
- PDE1B selectivity (versus PDE9A2) (PDE1B; [6]): 220

SMILES: Cc1nc(CN2CC(C)C(c3nn4c(C5CCOCC5)ncc4c(=O)[nH]3)C2)no1 (single isomer, unassigned; (+)) [(+)-2-((3,4-trans)-4-methyl-1-((5-methyl-1,2,4-oxadiazol-3-yl)methyl)pyrrolidin-3-yl)-7-(tetrahydro-2H-pyran-4-yl)imidazo[5,1-f][1,2,4]triazin-4(3H)-one]
- IC50 (PDE9A2): < 1000 nM
- PDE1A selectivity (versus PDE9A2) (PDE1A; [4]): 20
- PDE1B selectivity (versus PDE9A2) (PDE1B; [4]): 21

SMILES: CC1CN(Cc2ccc(C(F)(F)F)nc2)CC1c1nn2c(C3CCOCC3)ncc2c(=O)[nH]1 (single isomer, unassigned; (+)) [(+)-2-((3,4-trans)-4-methyl-1-((6-(trifluoromethyl)pyridin-3-yl)methyl)pyrrolidin-3-yl)-7-(tetrahydro-2H-pyran-4-yl)imidazo[5,1-f][1,2,4]triazin-4(3H)-one]
- IC50 (PDE9A2; [10]): < 1000 nM
- PDE1A selectivity (versus PDE9A2) (PDE1A; [11]): 333
- PDE1B selectivity (versus PDE9A2) (PDE1B; [11]): 980

SMILES: Cc1cccc(CN2CC(C)C(c3nn4c(C5CCOCC5)ncc4c(=O)[nH]3)C2)n1 (single isomer, unassigned; (+)) [(+)-2-((3,4-trans)-4-methyl-1-((6-methylpyridin-2-yl)methyl)pyrrolidin-3-yl)-7-(tetrahydro-2H-pyran-4-yl)imidazo[5,1-f][1,2,4]triazin-4(3H)-one]
- IC50 (PDE9A2; [7]): < 1000 nM
- PDE1A selectivity (versus PDE9A2) (PDE1A; [8]): 780
- PDE1B selectivity (versus PDE9A2) (PDE1B; [9]): 1005

SMILES: Cc1ccc(CN2CC(C)C(c3nn4c(C5CCOCC5)ncc4c(=O)[nH]3)C2)cn1 (single isomer, unassigned; (+)) [(+)-2-((3,4-trans)-4-methyl-1-((6-methylpyridin-3-yl)methyl)pyrrolidin-3-yl)-7-(tetrahydro-2H-pyran-4-yl)imidazo[5,1-f][1,2,4]triazin-4(3H)-one]
- IC50 (PDE9A2; [10]): < 1000 nM
- PDE1A selectivity (versus PDE9A2) (PDE1A; [11]): 97
- PDE1B selectivity (versus PDE9A2) (PDE1B; [11]): 177

SMILES: Cc1ccccc1-c1ncc2c(=O)[nH]c(C3CN(Cc4cnccn4)CC3C)nn12 (single isomer, unassigned; (+)) [(+)-2-((3,4-trans)-4-methyl-1-(pyrazin-2-ylmethyl)pyrrolidin-3-yl)-7-(o-tolyl)imidazo[5,1-f][1,2,4]triazin-4(3H)-one]
- IC50 (PDE9A2): < 1000 nM
- PDE1A selectivity (versus PDE9A2) (PDE1A; ratio of IC50 values, PDE1A versus PDE9A2, value greater than 1 indicates greater selectivity for PDE9A2): 387
- PDE1B selectivity (versus PDE9A2) (PDE1B; ratio of IC50 values, PDE1B versus PDE9A2, value greater than 1 indicates greater selectivity for PDE9A2): 469

SMILES: CC1CN(Cc2cnn3ccccc23)CC1c1nn2c(C3CCOCC3)ncc2c(=O)[nH]1 (single isomer, unassigned; (+)) [(+)-2-((3,4-trans)-4-methyl-1-(pyrazolo[1,5-a]pyridin-3-ylmethyl)pyrrolidin-3-yl)-7-(tetrahydro-2H-pyran-4-yl)imidazo[5,1-f][1,2,4]triazin-4(3H)-one]
- IC50 (PDE9A2): < 1000 nM
- PDE1A selectivity (versus PDE9A2) (PDE1A; [4]): 3240
- PDE1B selectivity (versus PDE9A2) (PDE1B; [4]): 1010

SMILES: CC1CN(Cc2cccnn2)CC1c1nn2c(C3CCOCC3)ncc2c(=O)[nH]1 (single isomer, unassigned; (+)) [(+)-2-((3,4-trans)-4-methyl-1-(pyridazin-3-ylmethyl)pyrrolidin-3-yl)-7-(tetrahydro-2H-pyran-4-yl)imidazo[5,1-f][1,2,4]triazin-4(3H)-one]
- IC50 (PDE9A2; [10]): < 1000 nM
- PDE1A selectivity (versus PDE9A2) (PDE1A; [11]): 182
- PDE1B selectivity (versus PDE9A2) (PDE1B; [11]): 276

Results, then the compound that gave them:

- IC50 (PDE9A2): < 1000 nM
- PDE1A selectivity (versus PDE9A2) (PDE1A; [4]): 337
- PDE1B selectivity (versus PDE9A2) (PDE1B; [4]): 337
SMILES: CC1CN(Cc2cnn3c2CCCC3)CC1c1nn2c(C3CCOCC3)ncc2c(=O)[nH]1 (single isomer, unassigned; (+)) [(+)-2-((3,4-trans)-4-methyl-1-((4,5,6,7-tetrahydropyrazolo[1,5-a]pyridin-3-yl)methyl)pyrrolidin-3-yl)-7-(tetrahydro-2H-pyran-4-yl)imidazo[5,1-f][1,2,4]triazin-4(3H)-one]

- IC50 (PDE9A2; [5]): < 1000 nM
- PDE1A selectivity (versus PDE9A2) (PDE1A; [6]): 585
- PDE1B selectivity (versus PDE9A2) (PDE1B; [6]): 566
SMILES: CC1CN(Cc2nccc(C(F)(F)F)n2)CC1c1nn2c(C3CCOCC3)ncc2c(=O)[nH]1 (single isomer, unassigned; (+)) [(+)-2-((3,4-trans)-4-methyl-1-((4-(trifluoromethyl)pyrimidin-2-yl)methyl)pyrrolidin-3-yl)-7-(tetrahydro-2H-pyran-4-yl)imidazo[5,1-f][1,2,4]triazin-4(3H)-one]

- IC50 (PDE9A2; [5]): < 1000 nM
- PDE1A selectivity (versus PDE9A2) (PDE1A; [6]): 105
- PDE1B selectivity (versus PDE9A2) (PDE1B; [6]): 496
SMILES: CC1CN(Cc2ncc(N3CCCC3)cn2)CC1c1nn2c(C3CCOCC3)ncc2c(=O)[nH]1 (single isomer, unassigned; (+)) [(+)-2-((3,4-trans)-4-methyl-1-((5-(pyrrolidin-1-yl)pyrimidin-2-yl)methyl)pyrrolidin-3-yl)-7-(tetrahydro-2H-pyran-4-yl)imidazo[5,1-f][1,2,4]triazin-4(3H)-one]

- IC50 (PDE9A2; [1]): < 1000 nM
- PDE1A selectivity (versus PDE9A2) (PDE1A; [2]): 258
- PDE1B selectivity (versus PDE9A2) (PDE1B; [3]): 560
SMILES: CC1CN(Cc2ccc(C(F)(F)F)cn2)CC1c1nn2c(C3CCOCC3)ncc2c(=O)[nH]1 (single isomer, unassigned; (+)) [(+)-2-((3,4-trans)-4-methyl-1-((5-(trifluoromethyl)pyridin-2-yl)methyl)pyrrolidin-3-yl)-7-(tetrahydro-2H-pyran-4-yl)imidazo[5,1-f][1,2,4]triazin-4(3H)-one]

- IC50 (PDE9A2; [5]): < 1000 nM
- PDE1A selectivity (versus PDE9A2) (PDE1A; [6]): 42
- PDE1B selectivity (versus PDE9A2) (PDE1B; [6]): 76
SMILES: Cc1cnc(CN2CC(C)C(c3nn4c(C5CCOCC5)ncc4c(=O)[nH]3)C2)nc1 (single isomer, unassigned; (+)) [(+)-2-((3,4-trans)-4-methyl-1-((5-methylpyrimidin-2-yl)methyl)pyrrolidin-3-yl)-7-(tetrahydro-2H-pyran-4-yl)imidazo[5,1-f][1,2,4]triazin-4(3H)-one]

- IC50 (PDE9A2; [1]): < 1000 nM
- PDE1A selectivity (versus PDE9A2) (PDE1A; [2]): 708
- PDE1B selectivity (versus PDE9A2) (PDE1B; [3]): 389
SMILES: CC1CN(Cc2cccc(C(F)(F)F)n2)CC1c1nn2c(C3CCOCC3)ncc2c(=O)[nH]1 (single isomer, unassigned; (+)) [(+)-2-((3,4-trans)-4-methyl-1-((6-(trifluoromethyl)pyridin-2-yl)methyl)pyrrolidin-3-yl)-7-(tetrahydro-2H-pyran-4-yl)imidazo[5,1-f][1,2,4]triazin-4(3H)-one]

- IC50 (PDE9A2): < 1000 nM
- PDE1A selectivity (versus PDE9A2) (PDE1A; [4]): 77
- PDE1B selectivity (versus PDE9A2) (PDE1B; [4]): 93
SMILES: CC1CN(CC2CCOCC2)CC1c1nn2c(C3CCOCC3)ncc2c(=O)[nH]1 (single isomer, unassigned; (+)) [(+)-2-((3,4-trans)-4-methyl-1-((tetrahydro-2H-pyran-4-yl)methyl)pyrrolidin-3-yl)-7-(tetrahydro-2H-pyran-4-yl)imidazo[5,1-f][1,2,4]triazin-4(3H)-one]

- IC50 (PDE9A2): < 1000 nM
- PDE1A selectivity (versus PDE9A2) (PDE1A; [4]): 81
- PDE1B selectivity (versus PDE9A2) (PDE1B; [4]): 119
SMILES: CC1CN(Cc2ncco2)CC1c1nn2c(C3CCOCC3)ncc2c(=O)[nH]1 (single isomer, unassigned; (+)) [(+)-2-((3,4-trans)-4-methyl-1-(oxazol-2-ylmethyl)pyrrolidin-3-yl)-7-(tetrahydro-2H-pyran-4-yl)imidazo[5,1-f][1,2,4]triazin-4(3H)-one]

- IC50 (PDE9A2; [10]): < 1000 nM
- PDE1A selectivity (versus PDE9A2) (PDE1A; [11]): 71
- PDE1B selectivity (versus PDE9A2) (PDE1B; [11]): 99
SMILES: CC1CN(Cc2ccnnc2)CC1c1nn2c(C3CCOCC3)ncc2c(=O)[nH]1 (single isomer, unassigned; (+)) [(+)-2-((3,4-trans)-4-methyl-1-(pyridazin-4-ylmethyl)pyrrolidin-3-yl)-7-(tetrahydro-2H-pyran-4-yl)imidazo[5,1-f][1,2,4]triazin-4(3H)-one]
